Assays:
[1] = test system: TG2-specific A20 cells expressing DQ2.5 and DQ2.5-glia-ω2 TCR transfectants; experiment: Effect of primary amines on T-cell response to deamidated gluten peptide (off-target/toxicity control); assay type: cell-based, Murine A20 B cells and BW58α–β– cells; conditions: 30 min pre-incubation of A20 cells with amine, then D-ω-gliadin 34-mer and DQ2.5-glia-ω2 TCR transfectants; IL-2; Figure S6
Protocol: The B‐cell/T‐cell collaboration assays were set up as previously described. To compare the uptake and presentation of different gluten peptides to T cells, A20 cells (5 mill/mL) expressing the TG2‐specific BCR (679‐14‐E06) and HLA DQ2.5 were incubated with recombinant TG2 (final 3 µg/mL) and varying amounts of N‐α‐gliadin 20‐mer, N‐ω‐gliadin 19‐mer, or N‐γ‐gliadin 21‐mer in RPMI supplemented with 2 mM CaCl2. After a 30 min incubation at 37°C the cells were washed with 1% FCS/RPMI and resuspended in 5% FCS/RPMI to give a final 1.5 million cells/mL (150 000/well) followed by 2 h incubation at 37°C. Next, TCR‐transfectant cells specific for either DQ2.5‐glia‐α2, DQ2.5‐glia‐ω2, or DQ2.5‐glia‐γ1 were added (25 000/well), followed by overnight incubation at 37°C. The next day, IL‐2 concentration was measured in the culture supernatant by ELISA as previously described. The responsiveness of different TCR transfectants was assessed in the same way, but without the 30 min incubation with TG2, and using the synthetic deamidated peptides (D‐α‐gliadin 20‐mer, D‐ω‐gliadin 17‐mer, and D‐γ‐gliadin 21‐mer). […]
or T cells in our cellular assays. […] T-cell activation was assessed b y ELISA quant ification of IL-2 secreted into the cell culture medium. […]

[2] = test system: TCR-transfectant cells specific for DQ2.5-glia-ω2; experiment: Inhibition by primary amines of activation of DQ2.5-glia-ω2-specific T cells by TG2-specific B cells, IL-2 ELISA; assay type: cell-based; conditions: for IC50: 5 µM N-ω-gliadin 34-mer, TG2, CaCl2, amine 0-1000 µM, IL-2 ELISA
Source text: (§1) Murine A20 B lymphoma cells engineered to express either the celiac patient‐derived TG2‐specific BCR 679‐14‐E06 or the non‐TG2‐specific BCR 693‐2‐F02 as human IgD are previously described. For B‐cell/T‐cell collaboration assays, we used A20 BCR transfectants also transduced to express HLA‐DQ2.5 [27]. Murine BW58α^–β^– cells were retrovirally transduced to express human CD4 as well as the celiac patient‐derived gluten‐specific TCR from a DQ2.5‐glia‐γ1‐reactive T‐cell clone (TCC 4.32) as previously described. The generation of TCR transfectants expressing DQ2.5‐glia‐α2‐reactive TCR (TCC 364.14) and DQ2.5‐glia‐ω2‐reactive TCR (clone 737.30) have been described previously.
(§2) The B‐cell/T‐cell collaboration assays were set up as previously described. To compare the uptake and presentation of different gluten peptides to T cells, A20 cells (5 mill/mL) expressing the TG2‐specific BCR (679‐14‐E06) and HLA DQ2.5 were incubated with recombinant TG2 (final 3 µg/mL) and varying amounts of N‐α‐gliadin 20‐mer, N‐ω‐gliadin 19‐mer, or N‐γ‐gliadin 21‐mer in RPMI supplemented with 2 mM CaCl2. After a 30 min incubation at 37°C the cells were washed with 1% FCS/RPMI and resuspended in 5% FCS/RPMI to give a final 1.5 million cells/mL (150 000/well) followed by 2 h incubation at 37°C. Next, TCR‐transfectant cells specific for either DQ2.5‐glia‐α2, DQ2.5‐glia‐ω2, or DQ2.5‐glia‐γ1 were added (25 000/well), followed by overnight incubation at 37°C. The next day, IL‐2 concentration was measured in the culture supernatant by ELISA as previously described. The responsiveness of different TCR transfectants was assessed in the same way, but without the 30 min incubation with TG2, and using the synthetic deamidated peptides (D‐α‐gliadin 20‐mer, D‐ω‐gliadin 17‐mer, and D‐γ‐gliadin 21‐mer). To assess how TG2 secondary substrate affects peptide uptake and presentation to T cells, TG2‐specific A20 cells expressing DQ2.5 were incubated with TG2, CaCl2, 5 µM N‐ω‐gliadin 34‐mer, or 5 µM N‐α‐gliadin 33‐mer in the presence of primary amines at increasing concentrations (0‐1000 µM), before the addition of TCR‐transfectant cells specific for the DQ2.5‐glia‐α2 or DQ2.5‐glia‐ω2 epitopes. The dose‐response curve fitting to find IC50 was done using the “[Inhibitor] vs. response” equation in GraphPad Prism 8.3.0. To examine whether primary amines directly affect the B cells, TG2‐specific A20 cell expressing DQ2.5 were incubated with primary amines for 30 min and washed, before addition of 2 µM D‐ω‐gliadin 34‐mer, followed by incubation with DQ2.5‐glia‐ω2 TCR transfectants.

[3] = test system: TCR-transfectant cells specific for DQ2.5-glia-α2; experiment: Inhibition by primary amines of activation of DQ2.5-glia-α2-specific T cells by TG2-specific B cells, IL-2 ELISA; assay type: cell-based; conditions: for IC50: 5 µM N-α-gliadin 33-mer, TG2, CaCl2, amine 0-1000 µM, IL-2 ELISA
Source text: as §1, §2

[4] = DQ2.5-glia-ω2, replicate Figure S5A
[5] = DQ2.5-glia-ω2, replicate Figure S5B
[6] = logIC50, DQ2.5-glia-ω2, Figure 5
[7] = logIC50, DQ2.5-glia-ω2, replicate Figure S5A
[8] = logIC50, DQ2.5-glia-ω2, replicate Figure S5B
[9] = DQ2.5-glia-α2, replicate Figure S5A
[10] = DQ2.5-glia-α2, replicate Figure S5B
[11] = logIC50, DQ2.5-glia-α2, Figure 5
[12] = logIC50, DQ2.5-glia-α2, replicate Figure S5A
[13] = logIC50, DQ2.5-glia-α2, replicate Figure S5B

| SMILES | toxic effect on B cells or T cells in cellular assays [1] | IC50 ([2]; DQ2.5-glia-ω2, Figure 5) [µM] | IC50 ([2]; DQ2.5-glia-ω2, mean) [µM] | IC50 [2, 4] [µM] | IC50 [2, 5] [µM] | logIC50 ([2]; DQ2.5-glia-ω2, Figure 5) | logIC50 ([2]; DQ2.5-glia-ω2, mean) | logIC50 [2, 4] | logIC50 [2, 5] | log 95% CI lower limit [2, 6] | log 95% CI upper limit [2, 6] | log 95% CI lower limit ([2]; logIC50, DQ2.5-glia-ω2, mean) | log 95% CI upper limit ([2]; logIC50, DQ2.5-glia-ω2, mean) | log 95% CI lower limit [2, 7] | log 95% CI upper limit [2, 7] | log 95% CI upper limit [2, 8] | IC50 ([3]; DQ2.5-glia-α2, Figure 5) [µM] | IC50 ([3]; DQ2.5-glia-α2, mean) [µM] | IC50 [3, 9] [µM] | IC50 [3, 10] [µM] | other results |
| --- | --- | --- | --- | --- | --- | --- | --- | --- | --- | --- | --- | --- | --- | --- | --- | --- | --- | --- | --- | --- | --- |
| NCCCNCCCCNCCCN [spermine] | no toxic effect | 55.1 | 27.5 | 18.4 | 9.13 | 1.74 | 1.32 | 1.26 | 0.960 | 1.50 | 1.99 | 1.04 | 1.58 | 1.03 | 1.50 | 1.26 | 77.3 | 58 | 17.7 | 78.9 | log 95% CI lower limit [2, 8]: 0.610; logIC50 ([3]; DQ2.5-glia-α2, Figure 5): 1.89; logIC50 ([3]; DQ2.5-glia-α2, mean): 1.68; logIC50 [3, 9]: 1.25; logIC50 [3, 10]: 1.90; log 95% CI lower limit [3, 11]: 1.53; log 95% CI upper limit [3, 11]: 2.27; log 95% CI lower limit ([3]; logIC50, DQ2.5-glia-α2, mean): 1.25; log 95% CI upper limit ([3]; logIC50, DQ2.5-glia-α2, mean): 2.11; log 95% CI lower limit [3, 12]: 0.638; log 95% CI upper limit [3, 12]: 1.83; log 95% CI lower limit [3, 13]: 1.59; log 95% CI upper limit [3, 13]: 2.22 |
| NCCCCCNC(=O)CCCC[C@@H]1SC[C@@H]2NC(=O)N[C@@H]21 [5-BP, 5‐biotinamido‐pentylamine] | no toxic effect | 60.7 | 27 | 13.6 | 6.79 | 1.78 | 1.25 | 1.13 | 0.832 | 1.52 | 2.04 | 1.23 | 1.57 | 0.940 | 1.32 | 1.36 | 42.7 | 53.3 | 23.7 | 93.6 | logIC50 ([3]; DQ2.5-glia-α2, Figure 5): 1.63; logIC50 ([3]; DQ2.5-glia-α2, mean): 1.66; logIC50 [3, 9]: 1.37; logIC50 [3, 10]: 1.97; log 95% CI lower limit [3, 11]: 1.48; log 95% CI upper limit [3, 11]: 1.78; log 95% CI lower limit ([3]; logIC50, DQ2.5-glia-α2, mean): 1.39; log 95% CI upper limit ([3]; logIC50, DQ2.5-glia-α2, mean): 1.93; log 95% CI lower limit [3, 12]: 1.15; log 95% CI upper limit [3, 12]: 1.60; log 95% CI lower limit [3, 13]: 1.54; log 95% CI upper limit [3, 13]: 2.43 |

Source: article PMC9545004, “Transglutaminase 2 affinity and enzyme‐substrate intermediate stability as determining factors for T‐cell responses to gluten peptides in celiac disease” (European Journal of Immunology, 2022)
